According to US20200069691A1, “HETEROCYCLIC COMPOUNDS AS HIV PROTEASE INHIBITORS” (Merck Sharp & Dohme Corp., priority 2016, published 2020):

The molecules below were run against T1, wild-type HIV-1 protease (Human immunodeficiency virus type 1 group M subtype B, UniProt P04585) (assay: Assay for Inhibition of Microbial Expressed HIV Protease (peptide substrate cleavage, LC-MS/MS readout)). Settings: E. coli expressed wild-type HIV-1 protease, mean of at least two independent experiments, read-out: HIV Pr Enzyme HIV1 PR IC50.
T1 construct: Escherichia coli expressed wild-type HIV-1 protease protein
Format: biochemical
Summary of the method: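 Cleavage of Val-Ser-Gln-Asn-(β-naphthyl)Ala-Pro-Ile-Val (400 μM) by recombinant HIV-1 protease ([…]) ran 1 h at 30 °C after a 30 min room-temperature inhibitor preincubation in 50 mM sodium acetate pH 5.5. Product peak areas by LC-MS/MS gave inhibition; values average at least two independent runs.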
For `Cc1cc2c(cn1)CN(C(=O)c1cccc(CN3C(=N)NC(c4ccccc4)(c4ccccc4)C3=O)c1)C2` [Compound 214, 2-imino-3-{3-[(6-methyl-1,3-dihydro-2H-pyrrolo[3,4-c]pyridin-2-yl)carbonyl]benzyl}-5,5-diphenylimidazolidin-4-one], the IC50 was 9.81 nM.
`COC(=O)Nc1ncc2c(n1)CN(C(=O)c1cc([C@@H](C)N3C(=N)N[C@](CCC(C)C)(c4ccccc4)C3=O)ccc1C(F)(F)F)C2` [Compound 135, methyl (6-{[5-{(1R)-1-[(4R)-2-imino-4-(3-methylbutyl)-5-oxo-4-phenylimidazolidin-1-yl]ethyl}-2-(trifluoromethyl)phenyl]carbonyl}-6,7-dihydro-5H-pyrrolo[3,4-d]pyrimidin-2-yl)carbamate] was tested, and the IC50 was 1.28 nM.
`CCOC(=O)c1nc2n(c1Cl)CCN(C(=O)c1cccc(CN3C(=N)NC(c4ccccc4)(c4ccccc4)C3=O)c1)C2` [Compound 247, ethyl 3-chloro-7-({3-[(2-imino-5-oxo-4,4-diphenylimidazolidin-1-yl)methyl]phenyl}carbonyl)-5,6,7,8-tetrahydroimidazo[1,2-a]pyrazine-2-carboxylate] was tested, and the IC50 was 17.9 nM.
With `COC(=O)Nc1ncc2c(n1)CN(C(=O)c1cccc(CN3C(=N)N[C@](CCC(C)C)(c4ccccc4)C3=O)c1)C2` [Compound 183, methyl {6-[(3-{[(4R)-2-imino-4-(3-methylbutyl)-5-oxo-4-phenylimidazolidin-1-yl]methyl}phenyl)carbonyl]-6,7-dihydro-5H-pyrrolo[3,4-d]pyrimidin-2-yl}carbamate] the IC50 was 2.26 nM.
`Cc1nnc(-c2cccc(-c3ncc4c(n3)CN(C(=O)c3cc(CN5C(=N)N[C@](CCCC(F)(F)F)(c6ccc(F)cc6)C5=O)ccc3C(F)(F)F)C4)c2)o1` [Compound 48, (5R)-5-(4-fluorophenyl)-2-imino-3-[3-({2-[3-(5-methyl-1,3,4-oxadiazol-2-yl)phenyl]-5,7-dihydro-6H-pyrrolo[3,4-d]pyrimidin-6-yl}carbonyl)-4-(trifluoromethyl)-benzyl]-5-(4,4,4-trifluorobutyl)-imidazolidin-4-one] gave an IC50 of 5.26 nM.
`CN1CCOc2cc(-c3ncc4c(n3)CN(C(=O)c3cc(CN5C(=N)N[C@](CCCC(F)(F)F)(c6ccc(F)cc6)C5=O)ccc3C(F)(F)F)C4)cnc21` [Compound 45, (5R)-5-(4-fluorophenyl)-2-imino-3-[3-{[2-(4-methyl-3,4-dihydro-2H-pyrido[3,2-b][1,4]oxazin-7-yl)-5,7-dihydro-6H-pyrrolo[3,4-d]pyrimidin-6-yl]carbonyl}-4-(trifluoromethyl)benzyl]-5-(4,4,4-trifluorobutyl)imidazolidin-4-one] gave an IC50 of 4.6 nM.
Work on `N=C1NC(c2ccccc2)(c2ccccc2)C(=O)N1Cc1ccc(F)c(C(=O)N2Cc3cncnc3C2)c1` [Compound 385, 3-[3-(5,7-dihydro-6H-pyrrolo[3,4-d]pyrimidin-6-ylcarbonyl)-4-fluorobenzyl]-2-imino-5,5-diphenylimidazolidin-4-one] yielded an IC50 of 25.8 nM.
Molecule `N=C1NC(c2ccc(F)cc2)(c2ccc(F)cc2)C(=O)N1Cc1ccc(Cl)c(C(=O)N2CCC(F)(F)C2)c1` [Compound 389, 3-{4-chloro-3-[(3,3-difluoropyrrolidin-1-yl)carbonyl]benzyl}-5,5-bis(4-fluorophenyl)-2-iminoimidazolidin-4-one] has an IC50 of 98.5 nM.
`N=C1NC(CCC2CC2)(c2cccc(F)c2)C(=O)N1Cc1ccc(C(F)(F)F)c(C(=O)N2CCn3c(nnc3C(F)(F)F)C2)c1` (stereo not drawn) [Compound 78, 5-(2-cyclopropylethyl)-5-(3-fluorophenyl)-2-imino-3-[4-(trifluoromethyl)-3-{[3-(trifluoro-methyl)-5,6-dihydro-[1,2,4]triazolo-[4,3-a]pyrazin-7(8H)-yl]carbonyl}-benzyl]imidazolidin-4-one] gave an IC50 of 10.5 nM.
For `CC(C)CCC1(c2ccc(F)cc2)NC(=N)N(Cc2ccc(C(F)(F)F)c(C(=O)N3C[C@@H]4ON=C(Nc5ccccc5)[C@@H]4C3)c2)C1=O` (stereo partly drawn) [Compound 175], the IC50 was 59.7 nM.
`CS(=O)(=O)Nc1cccc(-c2ncc3c(n2)CN(C(=O)c2cc(CN4C(=N)N[C@](CCCC(F)(F)F)(c5ccc(F)cc5)C4=O)ccc2C(F)(F)F)C3)c1` [Compound 44, N-[3-(6-{[5-{[(4R)-4-(4-fluorophenyl)-2-imino-5-oxo-4-(4,4,4-trifluorobutyl)imidazolidin-1-yl]methyl}-2-(trifluoromethyl)-phenyl]carbonyl}-6,7-dihydro-5H-pyrrolo[3,4-d]pyrimidin-2-yl)phenyl]methanesulfonamide] showed an IC50 of 4.55 nM.
Molecule `CC(C)CC1(c2ccccc2)NC(=N)N(Cc2ccc(C(F)(F)F)c(C(=O)N3Cc4cncnc4C3)c2)C1=O` (stereo not drawn) [Compound 150, 3-[3-(5,7-dihydro-6H-pyrrolo[3,4-d]pyrimidin-6-ylcarbonyl)-4-(trifluoromethyl)benzyl]-2-imino-5-(2-methylpropyl)-5-phenylimidazolidin-4-one] has an IC50 of 5.49 nM.
`CC(C)CCC1(c2ccccc2)NC(=N)N(Cc2cccc(C(=O)N3Cc4cnc(C#N)nc4C3)c2)C1=O` (stereo not drawn) [Compound 191, 6-[(3-{[2-imino-4-(3-methylbutyl)-5-oxo-4-phenylimidazolidin-1-yl]methyl}phenyl)carbonyl]-6,7-dihydro-5H-pyrrolo[3,4-d]pyrimidine-2-carbonitrile] was tested, and the IC50 was 4.17 nM.
`N=C1NC(c2ccccc2)(c2ccccc2)C(=O)N1Cc1cccc(C(=O)N2Cc3cnc(C(F)(F)F)nc3C2)c1` [Compound 242, 2-imino-5,5-diphenyl-3-(3-{[2-(trifluoromethyl)-5,7-dihydro-6H-pyrrolo[3,4-d]pyrimidin-6-yl]carbonyl}benzyl) imidazolidin-4-one] gave an IC50 of 16.6 nM.
`COC(=O)Nc1ncc2c(n1)CN(C(=O)c1ccc3c(c1)[C@H](N1C(=N)N[C@](CCC(C)C)(c4ccccc4)C1=O)CCC3)C2` [Compound 81, methyl [6-({(8R)-8-[(4R)-2-imino-4-(3-methylbutyl)-5-oxo-4-phenylimidazolidin-1-yl]-5,6,7,8-tetrahydronaphthalen-2-yl}carbonyl)-6,7-dihydro-5H-pyrrolo[3,4-d]pyrimidin-2-yl]carbamate] gave an IC50 of 12 nM.
With `N=C1NC(c2ccc(F)cc2)(c2ccc(F)cc2)C(=O)N1Cc1cncc(C(=O)N2CCN(C(=O)OCc3ccccc3)CC2)c1` [Compound 395, benzyl 4-[(5-{[4,4-bis(4-fluorophenyl)-2-imino-5-oxoimidazolidin-1-yl]methyl}pyridin-3-yl)carbonyllpiperazine-1-carboxylate] the IC50 was 97.4 nM.
With `N=C1NC(c2ccc(F)cc2)(c2ccc(F)cc2)C(=O)N1Cc1cccc(C(=O)N2CCC(n3c(=O)[nH]c4ccc(F)nc43)CC2)c1` [Compound 276, 3-{1-[(3-{[4,4-bis(4-fluorophenyl)-2-imino-5-oxoimidazolidin-1-yl]methyl}phenyl)carbonyl]piperidin-4-yl}-5-fluoro-1,3-dihydro-2H-imidazo[4,5-b]pyridin-2-one] the IC50 was 29.6 nM.
Work on `CC(C)C[C@]1(c2ccccc2)NC(=N)N(Cc2ccc(C(F)(F)F)c(C(=O)N3Cc4nccnc4C3)c2)C1=O` [Compound 149, (5R)-3-[3-(5,7-dihydro-6H-pyrrolo[3,4-b]pyrazin-6-ylcarbonyl)-4-(trifluoromethyl)-benzyl]-2-imino-5-(2-methylpropyl)-5-phenyl-imidazolidin-4-one] yielded an IC50 of 5.24 nM.
In the case of `N=C1N[C@](CCCC(F)(F)F)(c2ccc(F)cc2)C(=O)N1Cc1ccc(C(F)(F)F)c(C(=O)N2Cc3cnc(N4CCCC4)nc3C2)c1` [Compound 106, (5R)-5-(4-fluorophenyl)-2-imino-3-{3-[(2-pyrrolidin-1-yl-5,7-dihydro-6H-pyrrolo[3,4-d]pyrimidin-6-yl)carbonyl]-4-(trifluoromethyl)-benzyl}-5-(4,4,4-trifluorobutyl)-imidazolidin-4-one], the IC50 is reported as 25.4 nM.
For `N=C1N[C@](CCC2CC2)(c2cccc(F)c2)C(=O)N1Cc1ccc(C(F)(F)F)c(C(=O)N2CCn3c(nnc3C(F)(F)F)C2)c1` [Compound 103, (5R)-5-(2-cyclopropylethyl)-5-(3-fluorophenyl)-2-imino-3-[4-(trifluoromethyl)-3-{[3-(trifluoro-methyl)-5,6-dihydro[1,2,4]triazolo-[4,3-a]pyrazin-7(8H)-yl]carbonyl}-benzyl]imidazolidin-4-one], the IC50 was 23.8 nM.
`N=C1NC(CCC2CC2)(c2cccc(C(F)(F)F)c2)C(=O)N1Cc1ccc(C(F)(F)F)c(C(=O)N2Cc3nccnc3C2)c1` (stereo not drawn) [Compound 114, 5-(2-cyclopropylethyl)-3-[3-(5,7-dihydro-6H-pyrrolo[3,4-b]pyrazin-6-ylcarbonyl)-4-(trifluoromethyl)-benzyl]-2-imino-5-[3-(trifluoromethyl)-phenyl]-imidazolidin-4-one] showed an IC50 of 34.5 nM.
With `CC1c2ccccc2CN1C(=O)c1cccc(CN2C(=N)NC(c3ccc(F)cc3)(c3ccc(F)cc3)C2=O)c1` (stereo not drawn) [Compound 311, 5,5-bis(4-fluorophenyl)-2-imino-3-{3-[(1-methyl-1,3-dihydro-2H-isoindol-2-yl)carbonyl]benzyl} imidazolidin-4-one] the IC50 was 51.8 nM.
`N=C1N[C@](CCCC(F)(F)F)(c2ccc(F)cc2)C(=O)N1Cc1ccc(C(F)(F)F)c(C(=O)N2Cc3cnc(NCC4CC4)nc3C2)c1` [Compound 74, (5R)-3-[3-({2-[(cyclopropylmethyl)amino]-5,7-dihydro-6H-pyrrolo[3,4-d]pyrimidin-6-yl}carbonyl)-4-(trifluoromethyl)benzyl]-5-(4-fluorophenyl)-2-imino-5-(4,4,4-trifluorobutyl)imidazolidin-4-one] showed an IC50 of 9.6 nM.
In the case of `CC1(C)CN(C(=O)c2cccc(CN3C(=N)NC(c4ccccc4)(c4ccccc4)C3=O)c2)Cc2nnc(C(F)(F)F)n21` [Compound 300, 3-(3-{[5,5-dimethyl-3-(trifluoromethyl)-5,6-dihydro[1,2,4]triazolo[4,3-a]pyrazin-7(8H)-yl]carbonyl}benzyl)-2-imino-5,5-diphenylimidazolidin-4-one], the IC50 is reported as 44 nM.
